# From paper PMC12393501, “Recruitment of Mre11 to recombination sites during meiosis” (Research Square, 2025)
# Ends that are not written are not given here.
# B1: Mre11^IDR: purified eGFP-tagged Mre11 IDR alone (protein, UniProt P32829 524-677, looked up, fragment)
# chain: NSVRPTPPKENDETNFAFNGNGLDSFRSSNREVRTGSPDITQSHVDNESRITHISQAESSKPTSKPKRVRTATKKKIPAFSDSTVISDAENELGDNNDAQDDVDIDENDIIMVSTDEEDASYGLLNGRKTKTKTRPAASTKTASRRGKGRASRT
# modifications: IDR eGFP tag
# notes: purified eGFP-tagged Mre11 IDR alone
# B2: truncation of the terminal 15 amino acids of Mre11: Mre11 lacking the terminal 15 amino acids (pGAD-C1-Mre11-ΔC15) (protein)
# chain: MDYPDPDTIRILITTDNHVGYNENDPITGDDSWKTFHEVMMLAKNNNVDMVVQSGDLFHVNKPSKKSLYQVLKTLRLCCMGDKPCELELLSDPSQVFHYDEFTNVNYEDPNFNISIPVFGISGNHDDASGDSLLCPMDILHATGLINHFGKVIESDKIKVVPLLFQKGSTKLALYGLAAVRDERLFRTFKDGGVTFEVPTMREGEWFNLMCVHQNHTGHTNTAFLPEQFLPDFLDMVIWGHEHECIPNLVHNPIKNFDVLQPGSSVATSLCEAEAQPKYVFILDIKYGEAPKMTPIPLETIRTFKMKSISLQDVPHLRPHDKDATSKYLIEQVEEMIRDANEETKQKLADDGEGDMVAELPKPLIRLRVDYSAPSNTQSPIDYQVENPRRFSNRFVGRVANGNNVVQFYKKRSPVTRSKKSGINGTSISDRDVEKLFSESGGELEVQTLVNDLLNKMQLSLLPEVGLNEAVKKFVDKDEKTALKEFISHEISNEVGILSTNEEFLRTDDAEEMKALIKQVKRANSVRPTPPKENDETNFAFNGNGLDSFRSSNREVRTGSPDITQSHVDNESRITHISQAESSKPTSKPKRVRTATKKKIPAFSDSTVISDAENELGDNNDAQDDVDIDENDIIMVSTDEEDASYGLLNGRKTKTKTRPAASTKTASRRGKGRASRT
# modifications: left off: Gal4 activation domain (from the vector pGAD-C1), end not stated, kept
# What was measured:
# pUC19 plasmid DNA [1] = test: In vitro condensation assay, MRX complex
# Procedure: (§1) Proteins were diluted to a 10× stock of their appropriate working concentrations in their respective storage buffers. Reactions were performed in a buffer containing 25 mM HEPES-HCl (pH 7.5), 2 mM DTT, 1 mg/ml BSA, 5% glycerol, 5 mM MgCl2, 5% PEG-3350, and NaCl. Considering the salt contributed by the protein dilution buffer, final concentration of NaCl in a reaction was adjusted to 120 mM. Unless specified otherwise, all reactions contained 400 nM ^Alexa488Mre11 or 100 nM ^eGFPMRX. A typical 20 μL binding reaction contained 2 μL protein of 10× stock of indicated concentration, 10 μL of 2× reaction buffer, and 150 ng of supercoiled pUC19 (5.7 nM). Typical reactions were assembled at 30°C for 30 mins with gentle mixing every 5 mins, unless mentioned otherwise. 5 μL was dropped onto a microscope slide and covered with a coverslip. All images were captured on a Zeiss Axio Observer with a 100×/1.4 NA oil immersion objective except for images provided in Figure 4G which were captured on Leica Stellaris DMI 8 confocal microscope with a 63x/1.2 NA water immersion objective. Images were analyzed with ImageJ using a custom-made script. In brief, 129.24 × 129.24-μm (2048 × 2048-pixel) images were thresholded to mean intensity of the background plus three times the standard deviation of the background. Masked foci were counted and the intensity inside the focus mask was integrated. Data points represent averages of at least 8–10 images per sample. Data were analyzed using Graphpad Prism 10.4.0.
# Mer2 [2] = test: Colocalization of Mre11 with Mer2 condensates in vitro; type: binding, Saccharomyces cerevisiae
# Procedure: as §1, with “Reactions were performed in a buffer containing 25 mM HEPES-HCl (pH 7.5), 2 mM DTT, 1 mg/ml BSA, 5% glycerol, 5 mM MgCl2, 5% PEG-3350, and NaCl. Considering the salt contributed by the protein dilution buffer, final concentration of NaCl in a reaction was adjusted to 120 mM.” left out
# mre11-ΔC49 mutant = test: MMS and CPT sensitivity assay, mre11-ΔC49; type: cell-based, Saccharomyces cerevisiae; conditions: ten-fold serial dilutions on YPD plates, two days at 30°C
# Procedure: (§2) Following standard protocols, strains were patched on YPG plates, mated and streaked on YPD plates, and selected diploid colonies grown in liquid YPD at 30°C, 250 rpm, overnight. For meiotic synchronization, diploid cultures grown overnight in YPD were transferred to YPA (1% yeast extract, 2% peptone, 1% potassium acetate) at OD600 0.2 and grown for 12–14 hours at 30°C, 250 rpm. Once the cultures reached OD600 between 1.2–1.6, cells were washed once with prewarmed sterile water and immediately transferred to sporulation medium supplemented with amino acids (320 μL amino acid complementation media for 100 mL of sporulation media (SPM)) and were kept shaking at 30°C, 250 rpm during the entire meiotic time-course. For MMS and CPT (Sigma) sensitivity assays, serial dilutions of overnight cultures were spotted on freshly prepared YPD-MMS or YPD-CPT plates containing indicated percentage of MMS or CPT, respectively. Plates were grown for two days at 30°C. For immunofluorescence of vegetatively growing cells, overnight cultures were refreshed by diluting to OD600 0.2 and grown for 3–4 hours to reach OD600 1.2–1.4 before subjecting to MMS or MMS followed by 5% 1,6-hexanediol treatment. For 5% 1,6-hexanediol treatment, cells were first converted to spheroplasts and then treated with 5% 1,6-hexanediol for 4–5 minutes. […]
# mre11-ΔIDR mutants = test: MMS and CPT sensitivity assay, mre11-ΔIDR; type: cell-based, Saccharomyces cerevisiae; conditions: ten-fold serial dilutions on YPD plates, two days at 30°C
# Procedure: as §2
# [3] = tested on: meiotic yeast cells expressing myc-tagged Mre11; test: Immunofluorescence of Mre11-myc foci, meiotic nuclear spreads; type: cell-based, Saccharomyces cerevisiae; conditions: 5% 1,6-hexanediol, brief exposure, 4 hours after transfer to SPM
# Procedure: (§3) Following standard protocols, strains were patched on YPG plates, mated and streaked on YPD plates, and selected diploid colonies grown in liquid YPD at 30°C, 250 rpm, overnight. For meiotic synchronization, diploid cultures grown overnight in YPD were transferred to YPA (1% yeast extract, 2% peptone, 1% potassium acetate) at OD600 0.2 and grown for 12–14 hours at 30°C, 250 rpm. […]
# (§4) Slides were blocked with 90% FBS, 1× PBS for 1 hour at room temperature in a humid chamber and then incubated with primary antibody (mouse mAb anti-myc, 1:200 (2276S, Cell Signaling Technology), rabbit anti-phospho H2A-S129, 1:200 (ab15083, abcam)) diluted in 3% BSA, 1× PBS in a humid chamber for 2 hours at 37°C or overnight at 4°C. Slides were washed three times with 1× PBS in a Coplin jar, were incubated with secondary antibody (goat anti-mouse IgG Alexa Fluor™ Plus 488, 1:200 (A32723, Invitrogen), donkey anti-rabbit IgG Alexa Fluor™ 546, 1:200 (A10040, Invitrogen) diluted in 3% BSA, 1× PBS in a humid chamber at 37°C for 1 hour. Slides were washed in the dark three times for 5 mins with 1× PBS, mounted with Vectashield containing DAPI (Vector Labs). Images were captured on a Zeiss Axio Observer with a 100×/1.4 NA oil immersion objective and were analyzed in ImageJ.
# [4] = tested on: vegetative yeast cells expressing myc-tagged Mre11; test: Immunofluorescence of MMS-induced Mre11-myc foci, vegetative nuclear spreads; type: cell-based, Saccharomyces cerevisiae; conditions: 5% 1,6-hexanediol, 4–5 minutes, vegetative spheroplasts
# Procedure: as §3, §4
# pUC19 plasmid DNA [5] = test: In vitro condensation assay, Mre11; conditions: for Condensate formation: in the presence of plasmid DNA (pUC19), pH 7.5, 120 mM NaCl, 30°C, fluorescence microscopy
# Procedure: as §1
# pUC19 plasmid = test: Gel shift assay DNA binding; conditions: 1 nM pUC19, pH 7.5, 100 mM NaCl, 5 mM EDTA, 30°C for 30 mins
# Procedure: Proteins were diluted to their appropriate working concentrations in their respective storage buffers. […] Reactions were assembled at 30°C for 30 mins and resolved in a 1% agarose (SeaKem LE Agarose, Lonza) at 60 V for 120 mins at 4°C. Gels were stained with SYBR Gold Nucleic Acid Gel Stain (S11497, Invitrogen) for 40 mins and visualized with Amersham Typhoon biomolecular imager (Cytiva).
# Mer2 [6] = test: Yeast two-hybrid Mer2-Mre11 interaction; type: binding, Saccharomyces cerevisiae; conditions: SC-Leu-Ura-His + 25 mM 3-AT, 4–5 days at 30°C; at least four independent transformants
# Procedure: Bait and prey plasmids were co-transformed into yWL365 using the standard ‘LiAc’-based transformation and plated on SC-Leu-Ura selective media. At least four independent transformants were tested for Mer2-Mre11 interaction by spotting a dilution series on SC-Leu- Ura-His + 25 mM 3-AT (3-amino-1,2,4-triazole) and growing for 4–5 days at 30°C.
molecule,measurement,setting,value
MRX: Mre11-Rad50-Xrs2 complex with an eGFP tag at the N-terminus of Mre11,Effect of crowding agents on condensation,pUC19 plasmid DNA [1]; 5% PEG-3350,promoted
same,Role of the Mre11 C-terminal extremity in focus formation of MRX,"pUC19 plasmid DNA [1]; eGFP-tagged MRX, ΔC49",required for efficient focus formation
same,Condensate formation,"pUC19 plasmid DNA [1]; in the presence of plasmid DNA (pUC19), pH 7.5, 120 mM NaCl, 30°C, fluorescence microscopy",form large clusters visible by fluorescence microscopy
"C-terminus of Mre11: mScarlet-labelled Mre11-C49 (SYGLLNGRKTKTKTRPAASTKTASRRGKGRASRTPKTDILGSLLAKKRK; also: mScarlet tag; UniProt P32829 644-692, looked up, fragment)",Condensate formation of the C-terminus without Mer2,"Mer2 [2]; 800 nM mScarlet-Mre11-C49, control lacking eGFP-Mer2",does not form condensates independently
same,Localization in the presence of Mer2 condensates,"Mer2 [2]; 800 nM mScarlet-Mre11-C49 and 200 nM eGFP-Mer2, 30 minutes",forms a halo-like structure around Mer2 condensates
"COS(C)(=O)=O [MMS, methylmethanesulfonate]",Sensitivity of mre11-ΔC49 mutant to treatment,mre11-ΔC49 mutant,resistant
same,Sensitivity of mre11-ΔIDR mutants relative to wild type,mre11-ΔIDR mutants,as resistant to MMS or CPT as wild-type cells
"CC[C@@]1(O)C(=O)OCc2c1cc1n(c2=O)Cc2cc3ccccc3nc2-1 [CPT, camptothecin]",Sensitivity of mre11-ΔC49 mutant to treatment,mre11-ΔC49 mutant,resistant
same,Sensitivity of mre11-ΔIDR mutants relative to wild type,mre11-ΔIDR mutants,as resistant to MMS or CPT as wild-type cells
"OCCCCCCO [1,6-hexanediol]",Effect on meiotic Mre11 foci,[3],disassembles these foci
same,Effect on MMS-induced Mre11 foci,[4],"readily dissolved MMS-induced foci, which instead coalesced into a few aggregates of high intensity"
Mre11: Alexa488-labeled or eGFP-tagged budding yeast Mre11 nuclease,Effect of crowding agents on condensation,pUC19 plasmid DNA [5]; 5% PEG-3350,promoted
same,Effect of divalent metal ions on condensation,pUC19 plasmid DNA [5]; divalent metal ions,enhanced
same,Condensate formation,pUC19 plasmid DNA [5],form large clusters visible by fluorescence microscopy
same,Concentration above which foci intensity increases steeply,"pUC19 plasmid DNA [5]; protein titration, pUC19 DNA",above 200 nM
same,Species of reduced electrophoretic mobility at higher protein concentration,pUC19 plasmid,formed complexes of reduced mobility at higher protein concentration
same,Colocalization with Mer2,"Mer2 [2]; 200 nM Alexa594-Mer2 and eGFP-Mre11 assembled separately 10 minutes, then mixed 1:1 for 30 minutes",nearly absolute colocalization
B1,Condensate formation,pUC19 plasmid DNA [5],failed to form condensates
same,DNA binding compared to the WT or Mre11-ΔIDR,pUC19 plasmid,reduced DNA binding
B2,Interaction with Mer2 (yeast two-hybrid),Mer2 [6],abolished the interaction with Mer2
